In ChEMBL document CHEMBL1148163, “Studies on inhibitors of skin tumor promotion, XII. Rotenoids from Amorpha fruticosa” (J Nat Prod, 1993):

Key:
[1] = Cytotoxicity against human Raji cells assessed as cell viability at 1000 molar ratio; type: cell-based; details: read-out: Activity
[2] = tested on: Raji; assay: Inhibition of 12-O-tetradecanoylphorbol-13-acetate induced EBV-early antigen activation in human Raji cells assessed as EA activation at 500 molar ratio relative to TPA; type: cell-based; parameters: scale not given: the % may be the effect or the level left; details: human gammaherpesvirus 4
[3] = Cytotoxicity against human Raji cells assessed as cell viability at 10 molar ratio; type: cell-based; details: read-out: Activity
[4] = tested on: Raji; assay: Inhibition of 12-O-tetradecanoylphorbol-13-acetate induced EBV-early antigen activation in human Raji cells assessed as EA activation at 10 molar ratio relative to TPA; type: cell-based; parameters: scale not given: the % may be the effect or the level left; details: human gammaherpesvirus 4
[5] = tested on: Raji; assay: Inhibition of 12-O-tetradecanoylphorbol-13-acetate induced EBV-early antigen activation in human Raji cells assessed as EA activation at 1000 molar ratio relative to TPA; type: cell-based; parameters: scale not given: the % may be the effect or the level left; details: human gammaherpesvirus 4
[6] = Cytotoxicity against human Raji cells assessed as cell viability at 100 molar ratio; type: cell-based; details: read-out: Activity
[7] = tested on: Raji; assay: Inhibition of 12-O-tetradecanoylphorbol-13-acetate induced EBV-early antigen activation in human Raji cells assessed as EA activation at 100 molar ratio relative to TPA; type: cell-based; parameters: scale not given: the % may be the effect or the level left; details: human gammaherpesvirus 4
[8] = Cytotoxicity against human Raji cells assessed as cell viability at 500 molar ratio; type: cell-based; details: read-out: Activity
[9] = tested on: Mus musculus; assay: Inhibition of DMBA-induced/TPA-promoted carcinogenesis in ICR mouse assessed as number of mouse bearing one papilloma at 85 nmol administered twice weekly after 1 week of initiation; type: functional; parameters: scale not given: the % may be the effect or the level left
[10] = tested on: Raji; assay: Effect on TPA-induced cell cycle arrest in human Raji cells assessed as accumulation at G1 phase at 32 nmol by flow cytometry; type: functional
[11] = tested on: Raji; assay: Effect on TPA-induced cell cycle arrest in human Raji cells assessed as accumulation at G2/M phase at 32 nmol by flow cytometry; type: functional
[12] = tested on: Raji; assay: Effect on TPA-induced cell cycle arrest in human Raji cells assessed as accumulation at S phase at 32 nmol by flow cytometry; type: functional
[13] = tested on: Mus musculus; assay: Inhibition of DMBA-induced/TPA-promoted carcinogenesis in ICR mouse assessed as reduction in skin-papilloma formation at 85 nmol administered twice weekly after 1 week of initiation for 20 weeks; type: functional; parameters: scale not given: the % may be the effect or the level left
[14] = tested on: Mus musculus; assay: Inhibition of DMBA-induced/TPA-promoted carcinogenesis in ICR mouse assessed as number of skin papillomas per mouse at 85 nmol administered twice weekly after 1 week of initiation for 20 weeks; type: functional; parameters: scale not given: the % may be the effect or the level left

Structure (SMILES)	viability at 1000 molar ratio [1] [%]	Activity [2] [%]	viability at 10 molar ratio [3] [%]	Activity [4] [%]	Activity [5] [%]	viability at 100 molar ratio [6] [%]	Activity [7] [%]	viability at 500 molar ratio [8] [%]	Activity [9] [%]	Activity [10] [%]	Activity [11] [%]	Activity [12] [%]	Activity [13] [%]	Activity [14] [%]
COc1cc2c(cc1OC)[C@@H]1C(=O)c3ccc4c(c3O[C@@H]1CO2)C[C@H](C(C)(C)O[C@@H]1O[C@H](CO)[C@@H](O)[C@H](O)[C@H]1O)O4	80	36.3	80	100	0	80	87.3	80						
COc1cc2c(cc1OC)[C@]1(O)C(=O)c3ccc4c(c3O[C@@H]1CO2)C[C@H](C(C)(C)O)O4	80	43.9	80	100	22.6	80	82.1	80						
C=C(CO)[C@H]1Cc2c(ccc3c2O[C@@H]2COc4cc(OC)c(OC)cc4[C@@H]2C3=O)O1 [AMORPHIGENIN]	80	64.2	80	100	31.7	80	100	80						
COC1=CC(=O)[C@]2(C=C1OC)OC[C@H]1Oc3c(ccc4c3C=CC(C)(C)O4)C(=O)[C@H]12 [AMORPHISPIRONONE]	20	31.8	80	100	0	80	70.4	80	20	59.1	30.6	10.3	>80	>90
C=C(CO)[C@H]1Cc2c(ccc3c2O[C@@H]2COc4cc(OC)c(OC)cc4[C@]2(O)C3=O)O1 [DABINOL]	80	89.7	80	100	24.2	80	100	80						
COc1cc2c(cc1OC)[C@]1(O)C(=O)c3ccc4c(c3O[C@@H]1CO2)C=CC(C)(C)O4 [TEPHROSIN]	40	26.1	80	89.3	8	70	60.4	60		57.8	28.8	13.4	60	70
